Read-outs that look alike come from different tables or passages of the source.
Assays:
B-Raf = B-Raf (Homo sapiens (Human), UniProt P15056); assay: KINOMEscan enzyme binding assay, B-Raf
Description: Kinase enzyme binding activities of compounds disclosed herein may be determined using a proprietary assay which measures active site-directed competition binding to an immobilized ligand (Fabian, M. A. et al., Nature Biotechnol., 2005, 23:329-336). These assays may be conducted by DiscoverX (formerly Ambit; San Diego, Calif.). The percentage inhibition produced by incubation with a test compound may be calculated relative to the non-inhibited control.

c-Src = c-Src (Homo sapiens (Human), UniProt P12931); assay: c-Src enzyme inhibition (FRET); format: biochemical
Sequence of c-Src (P12931 whole entry, looked up): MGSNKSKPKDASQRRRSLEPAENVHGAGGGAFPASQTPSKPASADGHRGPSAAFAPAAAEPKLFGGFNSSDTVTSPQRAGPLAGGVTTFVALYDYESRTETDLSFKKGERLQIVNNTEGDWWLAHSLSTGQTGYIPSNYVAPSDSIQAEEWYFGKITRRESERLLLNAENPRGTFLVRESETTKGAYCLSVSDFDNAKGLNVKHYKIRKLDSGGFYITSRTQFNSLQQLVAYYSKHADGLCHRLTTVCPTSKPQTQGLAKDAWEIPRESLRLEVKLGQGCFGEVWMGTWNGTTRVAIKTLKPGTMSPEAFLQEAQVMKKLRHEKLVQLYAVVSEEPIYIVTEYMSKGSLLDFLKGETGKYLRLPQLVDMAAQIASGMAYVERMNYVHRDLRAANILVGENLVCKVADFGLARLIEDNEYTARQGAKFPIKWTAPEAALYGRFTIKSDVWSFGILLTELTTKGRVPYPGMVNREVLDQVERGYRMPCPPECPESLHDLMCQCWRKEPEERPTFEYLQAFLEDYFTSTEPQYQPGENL
Outline: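 Z-LYTE FRET peptide assay: c-Src (3000 ng/mL) or Syk (2000 ng/mL) preincubated 2 h at room temperature with compound (4–0.004 μg/mL working solutions). Reaction was 1 h with peptide (8 μM solution) and ATP (800 μM c-Src, 60 μM Syk solutions), followed by 1 h protease development. Phosphorylation was read as the coumarin/fluorescein emission ratio.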

[1] = Cryopreserved hepatocyte stability, Cynomolgus macaque; format: in vitro ADME; details: pooled cryopreserved hepatocytes, read-out: Mean intrinsic clearance
Description: Formulae Clint(tissue clearance) mL/min/kg=[0.693/t½ (min)]×[1/microsomal protein concentration mg/mL]×[mg microsomes/g liver]×[g liver/kg body weight] […] The incubations were performed at 37° C. with 100 μL, samples taken from the incubation, at 0, 10, 20, 45 and 90 minutes, and reactions terminated by addition of 100 μL of acetonitrile containing carbamazepine as analytical internal standard. […] Half-life values were calculated from the relationship T1/2 (min)=−0.693/λ • where λ was the slope of the Ln concentration vs time curve. • Standard compounds testosterone, midazolam and 4-methylumbelliferone are included in the assay design.
Clint(Tissue Clearance) mL/min/kg=[0.693/t½(min)]×[1/hepatocyte concentration (million cells/mL)]×[million cells/g liver]×[g liver/kg body weight] Clint(Hepatic clearance) mL/min/kg=hepatic blood flow×Clint/(hepatic blood flow+Clint) Hepatic extraction ratio(Eh)=Clint(Hepatic clearance) mL/min/kg/hepatic blood flow (mL/min/kg)

[2] = Hepatic microsomal stability, human; format: in vitro ADME; details: pooled liver microsomes, read-out: Mean intrinsic clearance
Description: • Microsomal stability assays were performed with incubations of test compounds at 0.1 μM (n=2, final DMSO concentration 0.25%), and carried out using pooled human, […], rat and Cynomolgus macaque hepatic microsomes from Xenotech (Lots 1210153, 0810143 and 1110042, respectively) at 0.25 mg protein/mL in the presence of cofactor, NADPH. The incubations were performed at 37° C. with 100 μL aliquots taken from the incubation, at 0, 2, 5, 10 and 20 minutes (and, in the case of Cynomolgus macaque hepatic microsomes, 40 minutes) and reactions terminated by addition of 100 μL of acetonitrile containing carbamazepine as analytical internal standard. […] Half-life values were calculated from the relationship T1/2 (min)=−0.693/λ • where λ was the slope of the Ln concentration vs time curve. • The in vitro intrinsic clearance, Clint (mL/min/kg), was calculated and scaled to hepatic extraction ratios using the following scaling parameters and formulae.
Formulae Clint(tissue clearance) mL/min/kg=[0.693/t½ (min)]×[1/microsomal protein concentration mg/mL]×[mg microsomes/g liver]×[g liver/kg body weight] […] Half-life values were calculated from the relationship T1/2 (min)=−0.693/λ • where λ was the slope of the Ln concentration vs time curve. • Standard compounds testosterone, midazolam and 4-methylumbelliferone are included in the assay design.

[3] = Pharmacokinetics and colon distribution in mice; format: in vivo, male C57BL/6 mice; details: male, 5 mg/kg p.o.; for concentration at 1 h / concentration at 2 h / concentration at 4 h / concentration at 6 h / concentration at 8 h / concentration at 12 h / concentration at 24 h: po, mouse
Description: Blood samples (approximately 60 μL) were collected from retro orbital plexus such that the samples were obtained at 1, 2, 4, 6, 8, 12 and 24 hr. The blood samples were collected from a set of three mice at each time point in labelled micro centrifuge tube containing K2EDTA as anticoagulant. Plasma samples were separated by centrifugation at 4000 rpm for 10 min of whole blood and stored below −70° C. until bioanalysis. After collection of blood sample, animals were humanely euthanized by carbon dioxide asphyxiation to collect total colon tissues. The colons were flushed with cold phosphate buffer saline (pH 7.4) to remove contents. The total colon tissues were homogenized with cold phosphate buffer saline (pH 7.4) of twice the weight of colon tissue and stored below −70° C. Total volume was three times the total colon tissue weights. All samples were processed for analysis by protein precipitation using acetonitrile and analyzed with developed LC-MS/MS method (LLOQ: 2.02 ng/mL in plasma and 1.01 ng/mL in colon tissue). Pharmacokinetic parameters were calculated using the non-compartmental analysis tool of Phoenix WinNonlin® software (version 6.3).

[4] = C57BL/6, colon, read-out: Mean concentration, Colon
[5] = C57BL/6, plasma, read-out: Mean concentration, Plasma
[6] = C57BL/6, po, Mouse, Total colon

Sequence of B-Raf (P15056 whole entry): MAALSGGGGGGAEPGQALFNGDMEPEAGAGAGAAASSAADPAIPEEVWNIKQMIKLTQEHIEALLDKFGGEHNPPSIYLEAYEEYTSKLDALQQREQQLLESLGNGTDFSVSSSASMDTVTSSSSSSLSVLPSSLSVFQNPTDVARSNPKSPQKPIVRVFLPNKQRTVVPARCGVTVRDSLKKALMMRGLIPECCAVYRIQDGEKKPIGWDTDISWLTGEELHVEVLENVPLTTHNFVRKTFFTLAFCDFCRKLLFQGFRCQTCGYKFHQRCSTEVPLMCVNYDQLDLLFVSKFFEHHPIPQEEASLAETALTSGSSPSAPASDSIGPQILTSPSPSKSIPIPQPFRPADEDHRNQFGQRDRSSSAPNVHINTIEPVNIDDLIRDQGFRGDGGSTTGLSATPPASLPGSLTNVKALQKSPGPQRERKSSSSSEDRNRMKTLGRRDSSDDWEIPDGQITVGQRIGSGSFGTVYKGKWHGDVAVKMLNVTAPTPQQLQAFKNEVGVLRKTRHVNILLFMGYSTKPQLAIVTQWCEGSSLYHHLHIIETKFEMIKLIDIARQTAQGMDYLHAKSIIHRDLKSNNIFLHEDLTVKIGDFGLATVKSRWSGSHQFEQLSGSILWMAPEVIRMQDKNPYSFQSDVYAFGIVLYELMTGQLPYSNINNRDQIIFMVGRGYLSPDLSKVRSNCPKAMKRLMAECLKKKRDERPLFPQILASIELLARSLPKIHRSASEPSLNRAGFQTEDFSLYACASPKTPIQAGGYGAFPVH

Question: For `C#Cc1cc(Nc2nccc(Oc3ccc(NC(=O)Nc4cc(C(C)(C)C)nn4-c4ccc(C)cc4)c4ccccc34)n2)cc(C(=O)NCCOCCOCCOC)c1` [Example 2, 3-((4-((4-(3-(3-(tert-Butyl)-1-(p-tolyl)-1H-pyrazol-5-yl)ureido)naphthalen-1-yl)oxy)pyrimidin-2-yl)amino)-5-ethynyl-N-(2-(2-(2-methoxyethoxy)ethoxy)ethyl)-benzamide], which “effect on the binding of B-Raf to its standard ligand” value (B-Raf) is on record?
Answer: The value was “did not have any effect”.

Question: And the IC50 (c-Src)?
Answer: The IC50 was 11 nM.

Question: And the hepatocyte CLint at 0.1 μM [1]?
Answer: The hepatocyte CLint at 0.1 μM was 43 µL/min/1e6 cells.

Question: And the microsomal CLint at 0.1 μM [2]?
Answer: Its microsomal CLint at 0.1 μM is greater than 554 µL/min/mg.

Question: What about the concentration at 1 h [3, 4] of the same molecule?
Answer: The concentration at 1 h was 884 ng/g.

Question: What about the concentration at 2 h [3, 4] of the same molecule?
Answer: Its concentration at 2 h is 2810 ng/g.

Question: What about the concentration at 4 h [3, 4] of the same molecule?
Answer: Its concentration at 4 h is 4240 ng/g.

Question: And the concentration at 6 h [3, 4]?
Answer: Its concentration at 6 h is 1400 ng/g.

Question: And the concentration at 8 h [3, 4]?
Answer: Its concentration at 8 h is 13700 ng/g.

Question: And the concentration at 12 h [3, 4]?
Answer: The concentration at 12 h was 7490 ng/g.

Question: And the concentration at 24 h [3, 4]?
Answer: The concentration at 24 h was 31.6 ng/g.

Question: What about the concentration at 1 h [3, 5] of the same molecule?
Answer: The concentration at 1 h was 11.7 ng/mL.

Question: And the concentration at 2 h [3, 5]?
Answer: The concentration at 2 h was 8.5 ng/mL.

Question: And the concentration at 4 h [3, 5]?
Answer: Its concentration at 4 h is 5.1 ng/mL.

Question: What about the concentration at 6 h [3, 5] of the same molecule?
Answer: The concentration at 6 h was 4.55 ng/mL.

Question: What about the concentration at 8 h [3, 5] of the same molecule?
Answer: Its concentration at 8 h is 5.1 ng/mL.

Question: What about the concentration at 12 h [3, 5] of the same molecule?
Answer: The concentration at 12 h was 0 ng/mL.

Question: And the concentration at 24 h [3, 5]?
Answer: Its concentration at 24 h is 0 ng/mL.

Question: What about the AUC(0-t) ([3]; C57BL/6, po, Mouse, Plasma) of the same molecule?
Answer: Its AUC(0-t) is 0.049 µg·h/mL.

Question: What about the Cmax ([3]; C57BL/6, po, Mouse, Plasma) of the same molecule?
Answer: The Cmax was 12 ng/mL.

Question: What about the Tmax ([3]; C57BL/6, po, Mouse, Plasma) of the same molecule?
Answer: The Tmax was 1 h.

Question: And the AUC(0-inf) [3, 6]?
Answer: The AUC(0-inf) was 118 µg·h/mL.

Question: What about the AUC(0-t) [3, 6] of the same molecule?
Answer: The AUC(0-t) was 117 µg·h/mL.

Question: And the Cmax [3, 6]?
Answer: The Cmax was 13700 ng/mL.

Question: And the Tmax [3, 6]?
Answer: Its Tmax is 8 h.
